In PMC9144902, “Metal(II) Complexes of the Fluoroquinolone Fleroxacin: Synthesis, Characterization and Biological Profile” (Pharmaceutics, 2022):

Experiments:
[1] = test system: EB–DNA adduct (CT DNA); experiment: Competitive study with EB (EB–DNA fluorescence quenching); assay type: binding, calf; details: for Ksv, Stern–Volmer constant: EB–DNA adduct; for ΔI/Io, percentage of EB–DNA fluorescence quenching: [EB] = 20 μM, [DNA] = 26 μM, λexc 540 nm, λem 592 nm; for EB–DNA relative fluorescence emission intensity, % of the initial (I/Io): λemission = 592 nm, final value (up to), Figure S14; for kq, EB–DNA quenching constant: τo = 23 ns
[2] = test system: CT DNA; experiment: Study of the DNA-interaction by cyclic voltammetry; assay type: binding, calf; details: for Epa(f), anodic potential / Epc(f), cathodic potential / Epa(b), anodic potential / Epc(b), cathodic potential: M(II)/M(I), 1:2 DMSO/buffer; for Epa(f), anodic potential / Epc(f), cathodic potential: absence of CT DNA; for Epa(b), anodic potential / Epc(b), cathodic potential: presence of CT DNA; for Kr/Kox, ratio of equilibrium DNA-binding constants (reduced/oxidized form): eq. S6
Experimental: Cyclic voltammetry was used to study the interaction of the complexes with CT DNA. An intercalative interaction will induce a positive shift for the electrochemical potential(s) of metal oxidation/reduction, whereas, in the case of electrostatic interaction, a negative shift in the potential(s) may occur. The cyclic voltammograms of the complexes in a 1:2 DMSO:buffer solution (0.33 mM) were recorded in the absence and presence of the CT DNA solution (Figure S13). The predominant electrochemical feature for all complexes is a positive shift in the potential in the presence of CT DNA (ΔEpc/a = (–30)–(+127) mV). Consequently, the intercalative nature of the interaction of the complexes with DNA can be inferred from the presented data.
In order to evaluate further the redox behavior of the complexes, the corresponding equilibrium constants were calculated by determining the ratio Kr/Kox in accordance to Equation (S6), where Kox and Kr are the DNA-binding constants for the oxidized and reduced form, respectively, of the metal ions. For all complexes, the Kr/Kox ratio is close to or above 1 (Table 7), showing the selective binding of DNA to the […] form of the complexes. […]
S3.3 Study of the DNA –interaction by cyclic vol ta mmetry
Cyclic voltammetr y can be also used in order to calculate the corresponding equilibrium constant for the redox process. The ratio of the DNA–binding constants for the reduced (K r) and oxidized forms (Kox) of t he complex es (Kr/Kox) w as calculat ed according t o eq. S6:
Δ = = 0.059 × lo gEE E K oxoo o (eq. S6) […]
where Eo and Eo are the formal potentials of M(II)/M(I) redox couple in the fully bound and […]
free complexes, respectivel y. Kox and Kr are the binding constants for the binding of the oxidized and reduced species to DNA, respectivel y [S8] . […]

Structure (SMILES)	Ksv, Stern–Volmer constant [1]	ΔI/Io, percentage of EB–DNA fluorescence quenching [1]	EB–DNA relative fluorescence emission intensity, % of the initial (I/Io) [1]	kq, EB–DNA quenching constant [1]	Epa(f), anodic potential [2]	Epc(f), cathodic potential [2]	Epa(b), anodic potential [2]	Epc(b), cathodic potential [2]	Kr/Kox, ratio of equilibrium DNA-binding constants (reduced/oxidized form) [2]
CN1CCN(c2c(F)cc3c(=O)c(C(=O)[O-])cn(CCF)c3c2F)CC1.CN1CCN(c2c(F)cc3c(=O)c(C(=O)[O-])cn(CCF)c3c2F)CC1.CO.CO.[Co+2] [complex 4, [Co(flrx)2(MeOH)2]]	1.36(±0.03) × 10^5 M^–1	64.1%	35.9%	5.93(±0.14) × 10^12 M^−1s^−1	−483 mV	−724 mV	−455 mV	−735 mV	1.15
CN1CCN(c2c(F)cc3c(=O)c(C(=O)[O-])cn(CCF)c3c2F)CC1.CN1CCN(c2c(F)cc3c(=O)c(C(=O)[O-])cn(CCF)c3c2F)CC1.[Mn+2].c1ccc(Nc2ccccn2)nc1 [complex 10, [Mn(flrx)2(bipyam)]]	5.92(±0.14) × 10^5 M^–1	81.1%	18.9%	2.57(±0.06) × 10^13 M^−1s^−1	−495 mV	−706 mV	−508 mV	−695 mV	0.98
CN1CCN(c2c(F)cc3c(=O)c(C(=O)[O-])cn(CCF)c3c2F)CC1.CN1CCN(c2c(F)cc3c(=O)c(C(=O)[O-])cn(CCF)c3c2F)CC1.[Co+2].c1cnc2c(c1)ccc1cccnc12 [complex 17, [Co(flrx)2(phen)]]	3.56(±0.10) × 10^5 M^–1	69.8%	30.2%	1.55(±0.05) × 10^13 M^−1s^−1	−523 mV	−695 mV	−518 mV	−689 mV	1.10
CN1CCN(c2c(F)cc3c(=O)c(C(=O)[O-])cn(CCF)c3c2F)CC1.[Cl-].[Cu+2].c1ccc(-c2ccccn2)nc1 [complex 6, [Cu(flrx)(bipy)Cl]]	2.03(±0.05) × 10^5 M^–1	61.9%	38.1%	8.84(±0.21) × 10^12 M^−1s^−1	−450 mV	−710 mV	−323 mV	−740 mV	2.28
CN1CCN(c2c(F)cc3c(=O)c(C(=O)[O-])cn(CCF)c3c2F)CC1.CN1CCN(c2c(F)cc3c(=O)c(C(=O)[O-])cn(CCF)c3c2F)CC1.CO.CO.[Ni+2] [complex 5, [Ni(flrx)2(MeOH)2]]	2.33(±0.08) × 10^5 M^–1	56.9%	43.1%	1.01(±0.03) × 10^13 M^−1s^−1	−495 mV	−706 mV	−501 mV	−701 mV	0.99
CN1CCN(c2c(F)cc3c(=O)c(C(=O)[O-])cn(CCF)c3c2F)CC1.[Cl-].[Cu+2].c1ccc(Nc2ccccn2)nc1 [complex 7, [Cu(flrx)(bipyam)Cl]]	3.44(±0.06) × 10^5 M^–1	62.7%	37.3%	1.50(±0.03) × 10^13 M^−1s^−1	−426 mV	−729 mV	−300 mV	−710 mV	3.41
CN1CCN(c2c(F)cc3c(=O)c(C(=O)[O-])cn(CCF)c3c2F)CC1.[Cl-].[Cu+2].c1cnc2c(c1)ccc1cccnc12 [complex 8, [Cu(flrx)(phen)Cl]]	3.25(±0.08) × 10^5 M^–1	66.4%	33.6%	1.41(±0.03) × 10^13 M^−1s^−1	−483 mV	−725 mV	−406 mV	−720 mV	2.00
